Assays:
CYP3A4 = test: Induction of CYP3A4 in frozen human hepatocytes; type: in vitro ADME; conditions: 72 h induction, concentration and readout not stated; for CYP3A4 Induction percentage relative to positive control (%): positive control Rifampicin
Protocol: (§1) Experimental purpose: Using frozen human hepatocytes as the test system, the induction effects of the test substances on CYP1A2, CYP2B6 and CYP3A4 were evaluated from two aspects of enzyme activity and mRNA level.
(§2) Experimental method: 24 hours after cell plating, induction was started by adding medium containing the test compound (test concentrations were 10, 1, and 0.1 μM), and fresh drug-containing medium was replaced every 24 hours. After 72 hours of induction, the medium was replaced with medium containing CYP1A2, CYP2B6, and CYP3A4 specific substrates for 30 minutes of incubation. 100 μL was taken for treatment, and the labeled metabolites of the substrates were detected to evaluate the enzyme activity level. Finally, the cells were lysed and reverse transcribed, and the expression levels of CYP1A2, CYP2B6 and CYP3A4 genes in the cells were evaluated by real-time quantitative PCR.
(§3) The induction fold of the test compound compared with the blank control and the induction percentage of the test compound compared with the positive control were used as the basis for evaluating the induction potential of the test compound. Among them, the positive control for CYP1A2 is Omeprazole; the positive control for CYP2B6 is Phenobarbital; the positive control for CYP3A4 is Rifampicin.

CYP2B6 = test: Induction of CYP2B6 in frozen human hepatocytes; type: in vitro ADME; conditions: 72 h induction, concentration and readout not stated; for CYP2B6 Induction percentage relative to positive control (%): positive control Phenobarbital
Protocol: as §1, §2, §3

hERG channel = molecular target: T1, hERG channel (Homo sapiens, UniProt Q12809); test: hERG channel current in HEK293 cells, automated patch clamp; type: cell-based; conditions: HEK-293 cells stably expressing hERG, whole-cell patch clamp, 0.3-30 μM
T1 construct: expressed in transfected cells; host or cells: HEK-293 cells stably expressing hERG
T1 sequence (Q12809 whole entry): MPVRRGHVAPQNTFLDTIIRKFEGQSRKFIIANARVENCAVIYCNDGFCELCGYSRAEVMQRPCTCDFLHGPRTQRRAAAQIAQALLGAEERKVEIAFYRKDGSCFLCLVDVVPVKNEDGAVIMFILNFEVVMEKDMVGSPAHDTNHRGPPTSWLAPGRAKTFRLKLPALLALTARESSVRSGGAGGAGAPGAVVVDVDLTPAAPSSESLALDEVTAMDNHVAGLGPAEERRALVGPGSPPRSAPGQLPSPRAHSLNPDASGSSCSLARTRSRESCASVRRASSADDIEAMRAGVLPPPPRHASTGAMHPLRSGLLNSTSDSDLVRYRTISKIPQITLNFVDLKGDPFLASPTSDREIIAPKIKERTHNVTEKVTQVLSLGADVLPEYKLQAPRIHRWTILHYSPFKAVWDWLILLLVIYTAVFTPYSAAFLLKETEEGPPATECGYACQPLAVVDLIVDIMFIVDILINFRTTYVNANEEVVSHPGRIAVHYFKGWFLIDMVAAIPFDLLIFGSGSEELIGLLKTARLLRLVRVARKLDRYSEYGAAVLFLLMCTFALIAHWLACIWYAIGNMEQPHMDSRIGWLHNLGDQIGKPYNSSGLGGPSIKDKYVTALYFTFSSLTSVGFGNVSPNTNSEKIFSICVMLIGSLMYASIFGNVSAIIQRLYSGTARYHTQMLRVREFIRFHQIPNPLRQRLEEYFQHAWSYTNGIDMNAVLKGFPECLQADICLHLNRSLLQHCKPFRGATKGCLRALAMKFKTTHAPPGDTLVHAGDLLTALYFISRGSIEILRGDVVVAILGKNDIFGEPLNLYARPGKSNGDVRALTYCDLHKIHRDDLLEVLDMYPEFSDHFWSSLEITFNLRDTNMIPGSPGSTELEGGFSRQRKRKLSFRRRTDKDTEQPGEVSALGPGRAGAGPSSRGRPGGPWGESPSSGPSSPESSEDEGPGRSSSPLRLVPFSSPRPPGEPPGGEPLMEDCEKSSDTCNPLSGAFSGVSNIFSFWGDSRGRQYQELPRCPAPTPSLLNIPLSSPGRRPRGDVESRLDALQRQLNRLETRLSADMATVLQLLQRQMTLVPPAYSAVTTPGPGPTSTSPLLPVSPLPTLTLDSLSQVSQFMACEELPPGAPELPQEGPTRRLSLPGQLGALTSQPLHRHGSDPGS
Protocol: Test 2: Detection of the Effect of Compounds on hERG Channel Currents Stably Expressed in HEK293 Cells Using Automated Patch Clamp
Experimental purpose: The concentration-effect relationship of the blocking effect of the compounds on hERG channels was determined using the patch clamp technique and HEK-293 cells stably expressing hERG channels to evaluate their risk of inhibitory effect on cardiac hERG potassium channels.
Experimental method: hERG cells were clamped using the patch clamp technique to form a high-resistance seal and then the membrane was broken. The whole-cell recording mode was used to record the hERG current. Each drug concentration was set to be administered twice for at least 5 minutes. The test concentrations were 0.3 μM, 1 μM, 3 μM, 10 μM and 30 μM, and the changes of the test compounds on hERG current were observed.

CYP1A2 = test: Induction of CYP1A2 in frozen human hepatocytes; type: in vitro ADME; conditions: 72 h induction, concentration and readout not stated
Protocol: as §1, §2, §3

hTLR7 = molecular target: T2, hTLR7 (Homo sapiens, UniProt Q9NYK1); test: Agonistic activity on human TLR7 in HEK-Blue hTLR7 cells (QUANTI-Blue); type: cell-based; conditions: 24 h incubation, OD650, read-out: hTLR 7 EC50
T2 construct: expressed in transfected cells; host or cells: HEK-Blue hTLR7 cells
T2 sequence (Q9NYK1 27-1049): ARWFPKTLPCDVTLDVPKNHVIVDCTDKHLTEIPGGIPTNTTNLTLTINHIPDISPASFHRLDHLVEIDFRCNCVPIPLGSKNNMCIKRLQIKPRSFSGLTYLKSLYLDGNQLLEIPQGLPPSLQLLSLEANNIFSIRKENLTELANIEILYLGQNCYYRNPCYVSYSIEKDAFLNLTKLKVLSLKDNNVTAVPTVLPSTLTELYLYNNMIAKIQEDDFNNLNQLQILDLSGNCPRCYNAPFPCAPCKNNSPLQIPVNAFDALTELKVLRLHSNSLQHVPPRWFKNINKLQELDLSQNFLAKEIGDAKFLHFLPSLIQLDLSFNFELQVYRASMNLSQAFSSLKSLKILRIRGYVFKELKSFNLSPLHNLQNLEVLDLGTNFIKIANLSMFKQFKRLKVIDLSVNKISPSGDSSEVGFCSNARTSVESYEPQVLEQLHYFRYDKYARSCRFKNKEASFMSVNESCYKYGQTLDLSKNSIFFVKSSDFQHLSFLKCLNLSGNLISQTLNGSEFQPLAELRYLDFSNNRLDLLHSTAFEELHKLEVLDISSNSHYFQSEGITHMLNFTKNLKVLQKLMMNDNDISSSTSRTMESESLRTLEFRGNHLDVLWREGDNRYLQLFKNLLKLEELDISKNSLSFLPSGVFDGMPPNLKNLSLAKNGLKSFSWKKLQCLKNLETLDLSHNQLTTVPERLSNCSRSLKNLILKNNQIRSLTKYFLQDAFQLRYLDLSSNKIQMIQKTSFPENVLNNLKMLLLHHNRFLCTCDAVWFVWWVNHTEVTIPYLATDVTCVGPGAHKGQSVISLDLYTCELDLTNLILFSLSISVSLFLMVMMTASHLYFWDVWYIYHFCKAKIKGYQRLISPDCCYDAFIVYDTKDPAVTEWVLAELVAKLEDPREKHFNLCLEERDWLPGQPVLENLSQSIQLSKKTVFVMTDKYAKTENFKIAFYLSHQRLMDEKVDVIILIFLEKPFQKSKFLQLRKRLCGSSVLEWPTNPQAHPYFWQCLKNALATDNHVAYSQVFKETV
Protocol: (§4) Purpose: HEK-Blue™ hTLR7 and HEK-Blue™ hTLR8 cells were used to detect the agonist and cytotoxic activities of compounds against hTLR7 and hTLR8.
(§5) The experimental steps were as shown below: • 1) Preparation of compound: The compound was prepared into a 20 mM stock solution with DMSO, and then the stock solution was diluted 3-fold in a gradient and added to a 96-well plate, for a total of 10 concentrations, with duplicate wells for each concentration. For negative control wells, 0.5 μL DMSO was added to each well. The final DMSO concentration was 0.5%. • 2) HEK-Blue™ hTLR7 or HEK-Blue™ hTLR8 cells were suspended in culture medium and then seeded into 96-well plates containing compounds at a cell count of 50,000 per well. The compounds and cells were incubated for 24 h at 37° C., 5% Co2. • 3) QUANTI-Blue was used for the detection solution: to a mixture of 1 mL of QB reagent and 1 mL of QB buffer was added 98 mL of sterile water, the mixture was mixed and dissolved, and then placed at room temperature for 10 min. • 4) Activity test of the compound: 20 μL of the culture supernatant in step 2) was added to each well of a 96-well plate containing 180 μL of QUANTI-Blue detection solution. After incubation at 37° C. for 1 h, the absorbance at 650 nm (OD650) was detected using a multifunctional microplate reader Flextation III. • 5) Detection of cell activity: The chemiluminescent signal (RLU) was detected using the multifunctional microplate reader Flextation III according to the instructions of Celltiter-Glo. • 6) Data analysis
(§6) Activity of compounds: OD650 values were analyzed using GraphPad Prism software, and the compound dose-effect curves were fitted to calculate the EC50 values of the compounds.

hTLR8 = molecular target: T3, hTLR8 (Homo sapiens, UniProt Q9NR97); test: Agonistic activity on human TLR8 in HEK-Blue hTLR8 cells (QUANTI-Blue); type: cell-based; conditions: 24 h incubation, OD650, read-out: hTLR 8 EC50
T3 construct: expressed in transfected cells; host or cells: HEK-Blue hTLR8 cells
T3 sequence (Q9NR97 27-1041): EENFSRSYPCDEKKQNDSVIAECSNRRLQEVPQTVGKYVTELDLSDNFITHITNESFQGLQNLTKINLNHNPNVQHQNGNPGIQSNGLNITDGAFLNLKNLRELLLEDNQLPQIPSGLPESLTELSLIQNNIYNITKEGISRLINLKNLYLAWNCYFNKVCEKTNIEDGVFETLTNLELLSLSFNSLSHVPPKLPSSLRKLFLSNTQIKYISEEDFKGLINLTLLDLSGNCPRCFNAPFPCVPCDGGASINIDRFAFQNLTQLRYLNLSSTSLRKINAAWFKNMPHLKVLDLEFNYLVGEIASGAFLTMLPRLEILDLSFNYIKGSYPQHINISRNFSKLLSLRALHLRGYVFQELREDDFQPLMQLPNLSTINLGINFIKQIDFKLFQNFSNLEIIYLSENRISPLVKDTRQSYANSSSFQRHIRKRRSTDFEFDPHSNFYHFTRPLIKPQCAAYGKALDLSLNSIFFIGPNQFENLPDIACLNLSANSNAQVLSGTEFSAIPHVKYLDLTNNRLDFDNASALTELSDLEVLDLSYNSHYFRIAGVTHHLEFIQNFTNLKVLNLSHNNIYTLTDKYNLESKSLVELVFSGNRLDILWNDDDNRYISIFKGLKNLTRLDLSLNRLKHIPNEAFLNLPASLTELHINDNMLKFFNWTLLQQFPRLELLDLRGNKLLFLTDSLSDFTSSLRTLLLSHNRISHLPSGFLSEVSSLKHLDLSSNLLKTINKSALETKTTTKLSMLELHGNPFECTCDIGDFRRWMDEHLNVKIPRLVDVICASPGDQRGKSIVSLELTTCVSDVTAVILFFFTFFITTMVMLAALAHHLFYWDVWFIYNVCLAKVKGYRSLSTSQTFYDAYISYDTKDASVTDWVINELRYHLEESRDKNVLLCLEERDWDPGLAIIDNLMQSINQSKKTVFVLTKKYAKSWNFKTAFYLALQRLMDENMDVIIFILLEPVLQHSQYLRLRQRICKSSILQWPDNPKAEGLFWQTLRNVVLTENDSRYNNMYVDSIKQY
Protocol: as §4, §5, §6

in vitro = conditions: human
Protocol: as §4, §5
(§7) Detection of cell activity: The calculation formula for cell activity % is as follows.
(§8) The cell activity % values were analyzed using GraphPad Prism software, and the compound dose-effect curves were fitted to calculate the CC50 values of the compounds.
(§9) Cell activity %=RLU compound/RLU DMSO Control*100%

[1] = Cell toxicity (Celltiter-Glo) in HEK-Blue hTLR8 cells; conditions: human
Protocol: as §4, §5, §7, §8, §9

Row | CYP3A4 Induction fold relative to blank control (CYP3A4) | CYP3A4 Induction percentage relative to positive control (%) (CYP3A4) | CYP2B6 Induction fold relative to blank control (CYP2B6) | CYP2B6 Induction percentage relative to positive control (%) (CYP2B6) | CYP1A2 Induction fold relative to blank control (CYP1A2) | SMILES | IC50 (hERG channel) | EC50 (hTLR7) | EC50 (hTLR8) | CC50 at 24 h (in vitro) | CC50 at 24 h [1]
1 | 9.5 | 15.8% | 3.6 | 24.5% | 2.6 | CCCC[C@](C)(CO)Nc1nc(N)nc2cc(F)cnc12 [Comparative compounds, (R)-2-((2-amino-7-fluoropyrido[3,2-d]pyrimidin-4-yl)amino)-2-methylhexan-1-ol, reference compound] | 3.3 µM | – | – | – | –
2 | – | – | – | – | – | CCCC[C@](C)(CO)Nc1nc(N)nc2cc(-c3cc(=O)n(C)cc3CN3CCNCC3)cnc12 [Example 5] | – | > 100 µM | 2.72 µM | > 100 µM | –
3 | 4.2 | 2.0% | 1.3 | 4.2% | 1.0 | C=CCCN(C)Cc1c[nH]c(=O)cc1-c1cnc2c(N[C@@](C)(CO)CCCC)nc(N)nc2c1 [Example 9, (R)-4-(2-Amino-4-((1-hydroxy-2-methylhexan-2-yl)amino)pyrido[3,2-d]pyrimidin-7-yl)-5-((but-3-en-1-yl(methyl)amino)methyl)pyridin-2(1H)-one] | 24.7 µM | 31.8 µM | 0.02 µM | – | > 100 µM

Source: patent US20250163051A1, “PYRIMIDO AROMATIC RING COMPOUND AND USE THEREOF IN DRUG” (SUNSHINE LAKE PHARMA CO., LTD., priority 2022, published 2025)
